Experimental findings from a melting point compilation (Tetko et al.) are described below.

A word on the melting point: it is the temperature of the solid-liquid transition. Molecule `C#CC1(O)CCC2C3CCC4C(C)(C)CCCC4(C)C3CCC21C` (configuration not stated) displayed a melting point of 156 to 158 °C.

Molecule `OCC1(O)CC(O)C(O)CO1` (configuration not stated) gave a melting point of 111 °C.

Take `CCOP(=O)(Cc1ccc(N)cc1)OCC`: the melting point was 93 °C.

Turning to `CCOC(=O)c1c(SC)nn(S(=O)(=O)c2ccc(OC)cc2)c1N`, the melting point was in the range of 143 to 145 °C.

`O=[N+]([O-])c1ccccc1C=NO` showed a melting point of 100 °C.

For `CC(C)(C)SC1(C#N)CC1(C#N)SC(C)(C)C` (configuration not stated), the melting point turned out to be 104 °C.

The molecule `CCC(CC)COC(=O)CCCCCCCC(=O)OCC(CC)CC` returned a melting point of -45 °C.

The molecule `COc1ccc(CCC(=O)O)cc1OC` gave a melting point of 98 °C.

Take `NC(=O)Oc1ccc(Cc2ccccc2)cc1`: the melting point amounted to 148 °C.

`CC(C)NCC(O)c1cc(O)cc(O)c1` (configuration not stated): the melting point stood at 100 °C.

With `CON(C)C(=O)Nc1ccc(Oc2ccc3c(c2)OC(C)(OC)CC3(C)C)cc1` (configuration not stated), the melting point stood at 102 °C.

`CCC(C(=O)OC)c1ccccc1` (configuration not stated) yielded a melting point of 77.5 °C.

`Clc1ncnc2scc(-c3cccs3)c12` came in with a melting point of 110 to 112 °C.

As for `Cn1c(=O)c(C2=NNC(=O)C2=CC=Cc2ccccc2)c(O)c2ccccc21`, the melting point was determined as 238 °C.

The molecule `CC=C(C)Cl` came in with a melting point of -19 °C.

For the molecule `CCCCCC(c1ccccc1)c1ccccc1`, the melting point is -12 °C.

Consider `CSc1nc(N)c(C(=O)c2ccc(Br)cc2)s1`, for which the melting point was in the range of 163 to 165 °C.

For the molecule `N#Cc1ccccc1I`, the melting point amounted to 55 °C.

`OCC1OC(n2cnc3c(NCc4ccccc4)ncnc32)C(O)C1O` (configuration not stated) showed a melting point of 184 to 186 °C.

As to `O=C(Nc1cccc2c1c(S(=O)(=O)O)cc1oc(-c3ccccc3)nc12)c1ccccc1`, the melting point was 276 °C.

The molecule `CNCC(O)c1cccc(NS(C)(=O)=O)c1` (configuration not stated) showed a melting point of 159 °C.

Consider `CN1COCc2c1ccc1cc3ccc(N)c(CO)c3nc21`, for which the melting point was 235 °C.

Consider `NNC(=O)c1ccccc1OC(F)(F)F`, for which the melting point lay within 103 to 105 °C.

Turning to `CCS(N)(=O)=O`, the melting point stood at 60 °C.

As to `Cc1c(CO)cnn1-c1ccccc1`, the melting point was in the range of 88 to 89 °C.

`Nc1cc(F)c(F)c(Br)c1`: the melting point turned out to be 68 °C.

For `O=C(Nc1ccccc1)c1cc([N+](=O)[O-])cc(S(=O)(=O)Nc2ccccc2)c1`, the melting point stood at 188 °C.

For `N#Cc1c(F)c(F)c(F)c(F)c1C#N`, the melting point was 83 °C.

For `Cc1ccc([N+](=O)[O-])cc1S(=O)(=O)O`, the melting point amounted to 133 °C.

`CNC(=S)Nc1cc(OC)c(OC)cc1C(c1ccc(C)o1)c1ccc(C)o1`: the melting point stood at 165 °C.

`FC(F)(F)c1cc(Cl)c(I)c(Br)c1` came in with a melting point of 29 to 31 °C.

In turn, `C=CCCCCCCCCC(=O)OCC` registered a melting point of -38 °C.

`CC(=O)NCCc1ccccc1NC(C)=O` gave a melting point of 144 °C.

On to `CC1CCC(C(C)C)C(OC(=O)c2ccc(C(=O)OC3CC(C)CCC3C(C)C)cc2)C1` (configuration not stated), for which the melting point is 75 °C.

`CC1(C)C(C=C(Cl)Cl)C1C(=O)OC(C#N)c1ccc(F)c(Oc2ccccc2)c1` (configuration not stated) showed a melting point of 93.5 °C.

`CC[C@H](CO)N1Cc2ccccc2C1`: the melting point was 56 to 61 °C.

For the molecule `CCOC(=O)Oc1c(OC)cc(C(=O)OC2CC3CN4CCc5c([nH]c6cc(OC)ccc56)C4CC3C(C(=O)OC)C2OC)cc1OC` (configuration not stated), the melting point was 177 °C.

Consider `O=C(O)Cn1c(C(F)(F)F)nc2ccccc21`, for which the melting point is 248 °C.

As for `c1ccc(/N=N/c2ccccc2/N=N/c2ccccc2)cc1`, the melting point was 111 °C.

Molecule `Cc1noc(C)c1[N+](=O)[O-]` yielded a melting point of 57 to 60 °C.

In turn, `O=C(c1ccc(C(F)(F)F)cc1)c1cccc(C(F)(F)F)c1` registered a melting point of 94 to 98 °C.

Molecule `CC(C)CCCC(C)O` (configuration not stated) displayed a melting point of -105 °C.
